Results taken from patent US5696113A, “Antipsychotic agents, compositions and method of use” (Hoechst Marion Roussel, Inc., priority 1996, dated 1997).
pIC50: −log10 of the molar value. Where a name gives a salt, the structure may show the parent alone. Read-outs that look alike come from different tables or passages of the source.

What was measured:
[1] = system: postsynaptic dopamine receptors; experiment: Apomorphine stereotypy inhibition in rats (APO-S); assay type: in vivo, male Wistar rats; settings: ip, apomorphine 1.5 mg/kg s.c.
Experimental: APOMORPHINE STEREOTYPY INHIBITION IN RATS
For a primary screen, a group size of six is used. Drug is administered one hour prior to scoring and the animals are placed in individual clear plastic cages (24×14×13 cm). The control group receives vehicle. Apomorphine is prepared at a concentration of 15 mg/10 ml in a […] ascorbic acid stock solution prepared with 30 mg of ascorbic acid in 100 ml of 1% saline to increase the stability of the apomorphine while in solution. […] Stereotypic behavior is noted 10 minutes later. […] Stereotypic behavior is defined as sniffing, licking or chewing behavior which occurs in a repetitive manner and is continuous for a 10-second period in the presence of white noise. The animal is considered protected if this behavior is interrupted. The percent effectiveness of a drug is determined by the number of animals protected in each group.
A dose-response is determined in the same manner as a primary screen except that a group size of 10 is used and the animals are dosed in a randomized manner. One group receives vehicle. ED50 values for inhibition of stereotypy are calculated by means of Litchfield and Wilcoxon Analysis.

[2] = system: dopamine neurons, substantia nigra (A9); experiment: Chronic single-unit dopamine neuron sampling, A9 region; settings: for % Change in A9 region (dopamine neuron sampling): ip, once a day for 21 days, vs vehicle, dose 20 mg/kg for the hydrobromide compound
Experimental: Dopamine Neuron Sampling. Male Wistar rats (280-360 grams) were used in this procedure. They were housed for at least 48 hours in a climate-controlled vivarium with food and water continuously available. Each rat was initially anesthetized with chloral hydrate (400 mg/kg ip) and maintained with additional injections as needed throughout the experiment. The animal was mounted in a stereotaxic apparatus (Kopf, model 900). The cranium was exposed, cleaned of connective tissue and dried. The skull overlying both the substantia nigra [A9:anterior (A) 3000-3400 microns, lateral (L) 1800-2400 microns from lambda)] and the ventral tegmental area (A10: A3000-3400 microns, L 400-1000 microns from lambda)^47 was removed. Using the dura as a point of reference, a micropipette driven by a hydraulic microdrive was lowered through the opening in the skull at vertical 6000-8500 microns. Spontaneously firing dopamine neurons within both the substantia nigra and the ventral tegmental areas were counted by lowering the electrode into twelve separate tracks (each track separated from the other by 200 microns) in each region. The sequence of the tracks was kept constant, forming a block of tissue which could be repoducibly located from animal to animal.
Extracellular neuronal signals were sampled using a single barrel micropipette approximately one micron at its tip, and filled with 2M NaCl saturated with 1% pontamine sky blue dye. The in vitro impedance of this piper (measured with a Winston Electronics Co., BL-1000 Micro Electrode Tester) was between 5 and 10 megaohms. […] Only cells whose electrophysiological characteristics matched those previously established for midbrain dopamine neurons were counted.
At the end of each experiment, the location of the last recorded track tip was marked by passing 25 microampere cathodal current through the recording micropipette barrel for 15 minutes in order to deposit a spot of dye. The rat was sacrificed; the brain was then removed, dissected and frozen on a bed of dry ice. Frozen serial sections (20 microns in width) were cut, mounted, and stained with cresyl violet and examined using a light microscope.
Animals pretreated with vehicle prior to neuronal sampling served as controls. Compounds were prepared as percent base. Each compound was suspended in distilled water and one drop of Tween 80, and kept constantly agitated during dosing. All compounds were delivered at a dodge volume of 1 mg/kg by the intraperitoneal route. For animals used in the chronic single-unit, dopamine neuron sampling assay, the compounds were administered once a day for 21 days, and dopamine neuron sampling was begun two hours after the last dose on the 21st day. […]

apomorphine climbing = experiment: Climbing Mouse Assay (apomorphine-induced climbing); assay type: in vivo, mice (CK-1 male); settings: ip, read-out: CLIMBING MOUSE ASSAY (ED50 mg/kg, ip)
Experimental: Antipsychotic activity is determined in the climbing mice assay by a method similar to those described by P. Protais, et al, Psychopharmacol.
Subject […] male mice (23-27 grams) are group-housed under standard laboratory conditions. The mice are individually placed in wire mesh stick cages (4"×10") and are allowed one hour for adaption and exploration of the new environment.
For evaluation of climbing, 3 readings are taken at 10, 20, and 30 minutes after apomorphine administration according to the following scale:
Mice consistently climbing before the injection of apomorphine are discarded.
With full-developed apomorphine climbing, the animals are hanging on to the cage walls, rather motionless, over long periods of time. By contrast, climbs due to mere motor stimulation usually only last a few seconds.
The climbing scores are individually totaled (maximal score: 6 per mouse over 3 readings) and the total score of the control group (vehicle intraperitoneally, apomorphine subcutaneously) is set to 100%.

[3] = system: dopamine neurons, ventral tegmental area (A10); experiment: Chronic single-unit dopamine neuron sampling, A10 region; assay type: in vivo, male Wistar rats; settings: ip, once a day for 21 days, vs vehicle; dose 20 mg/kg for the hydrobromide compound
Experimental: Dopamine Neuron Sampling.
Compounds were prepared as percent base.

[4] = target: T1, 5HT2 Site (cerebral cortical membranes) (Rattus norvegicus, UniProt P14842); experiment: 3H-Spiroperidol binding to cerebral cortical membranes (5HT2 site); set-up: species or system rats; settings: 3H-spiroperidol 1.5 nM, 37° C., 10 min, pH 7.7
T1 construct: from tissue; host or cells: rat cerebral cortex (membranes)
T1 sequence (P14842 whole entry): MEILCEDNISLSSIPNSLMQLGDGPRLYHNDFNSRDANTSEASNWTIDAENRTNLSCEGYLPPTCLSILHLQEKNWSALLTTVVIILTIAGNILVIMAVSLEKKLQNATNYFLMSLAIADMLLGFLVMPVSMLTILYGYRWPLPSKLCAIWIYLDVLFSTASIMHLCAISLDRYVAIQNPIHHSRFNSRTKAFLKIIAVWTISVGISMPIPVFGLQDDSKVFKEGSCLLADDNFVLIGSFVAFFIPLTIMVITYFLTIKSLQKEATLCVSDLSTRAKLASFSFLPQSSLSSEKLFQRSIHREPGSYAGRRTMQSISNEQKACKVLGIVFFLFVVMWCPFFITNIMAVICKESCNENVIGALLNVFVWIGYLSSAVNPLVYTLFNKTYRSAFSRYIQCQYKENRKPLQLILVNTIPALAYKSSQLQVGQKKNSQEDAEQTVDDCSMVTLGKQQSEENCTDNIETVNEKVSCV
Experimental: (§1) D2 /5T-HT2 BINDING ASSAYS
^3 H-Spiroperidol Binding to Cerebral Cortical membranes (5HT2 Site) in Rats
Nonspecific binding was determined in the presence of 5 μM methysergide. The incubation was terminated by rapid filtration through Whatman GF/B filters.

[5] = target: T2, D2-Dopaminergic Site (striatal membranes) (Rattus norvegicus, UniProt P61169); experiment: 3H-Spiroperidol binding to striatal membranes (D2-dopaminergic site); set-up: species or system rats
T2 construct: from tissue; host or cells: rat striatum (membranes)
T2 sequence (P61169 whole entry): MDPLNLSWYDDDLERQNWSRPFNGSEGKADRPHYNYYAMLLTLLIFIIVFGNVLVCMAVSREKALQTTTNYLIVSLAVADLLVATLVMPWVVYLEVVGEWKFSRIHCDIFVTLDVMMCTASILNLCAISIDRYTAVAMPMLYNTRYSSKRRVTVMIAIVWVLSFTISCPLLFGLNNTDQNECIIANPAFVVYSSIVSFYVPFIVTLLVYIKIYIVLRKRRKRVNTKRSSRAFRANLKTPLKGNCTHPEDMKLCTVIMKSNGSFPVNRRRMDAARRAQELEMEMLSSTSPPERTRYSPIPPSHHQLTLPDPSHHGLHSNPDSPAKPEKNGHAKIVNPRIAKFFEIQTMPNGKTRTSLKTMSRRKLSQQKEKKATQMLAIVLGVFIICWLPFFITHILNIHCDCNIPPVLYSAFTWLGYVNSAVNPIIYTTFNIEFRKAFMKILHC
Experimental: as §1
^3 H-Spiroperidol Binding to Striatal Membranes (D2 -Dopaminergic Site) in Rats
Striatal membranes were incubated with ^3 H-spiroperidol (0.4 nM) and various concentrations of test drug at 37° C. for 10 minutes in 1 ml of 0.05 M Tris-HCl buffer, pH 7.7 containing 120 mM NaCl, 5 mM KCl, 2 mM CaCl2, and 1 mM MgCl2. Nonspecific binding was determined in the presence of 2μM(+)-butaclamol. Bound ligand was separated by rapid filtration through Whatman GF/B filters.

[6] = system: dopamine neurons, substantia nigra (A9); settings: repeated administration; background statement; cited from earlier work
[7] = apomorphine 1.5 mg/kg s.c., linear regression

SMILES	ED50 ([1]; Rattus norvegicus, Litchfield and Wilcoxon)	% Change in A9 region (dopamine neuron sampling) [2]	number of DA neurons in the A9 area (EPS propensity) ([2]; result in words)	ED50 (apomorphine climbing)	% Change in A10 region (dopamine neuron sampling) [3]	ED50 (apomorphine climbing; [7])	APOMORPHINE STEREOTYPY INHIBITION (% inhibition) ([1]; at 4.0 mg/kg)	pIC50 [4]	pIC50 ([5]; 3H-spiroperidol 0.4 nM, 37° C., 10 min, pH 7.7)	D2/5-HT2 ([5]; ratio of D2 IC50 to 5-HT2 IC50)	APOMORPHINE STEREOTYPY INHIBITION (ED50) ([1]; Litchfield and Wilcoxon)	depolarization inactivation of the DA neurons in the A9 area [6]
CN1CCN(C2=Nc3cc(Cl)ccc3Nc3ccccc32)CC1 [Clozapine]	> 40 mg/kg	+37%	do not cause a decrease in the number of DA neurons in the A9 area	8.1 mg/kg	-79%	–	–	–	–	–	–	–
COc1ccc2c(N3CCN(CCCC(=O)c4ccc(F)cc4)CC3)noc2c1 [Example 1b, 3-[1-(4'-Fluorobenzoyl)propyl-4-piperazine]-6-methoxy-1,2-benzisoxazole]	–	–	–	–	–	5.28 mg/kg	–	–	–	–	–	–
O=C(CCCN1CCN(c2noc3cc(O)ccc23)CC1)c1ccc(F)cc1 [Example 3, 3-[1-(4'-Fluorobenzoyl)propyl-4-piperazinyl]-6-hydroxy-1,2-benzisoxazole hydrobromide]	–	+1.4%	–	–	-44.9%	0.4 mg/kg	0%	7.35	6.62	5.3	–	–
O=C(CCCN1CCC(O)(c2ccc(Cl)cc2)CC1)c1ccc(F)cc1 [Haloperidol]	–	-30%	–	–	-35%	0.11 mg/kg	–	–	–	–	0.6 mg/kg	cause a depolarization inactivation of the DA neurons in the A9 area of the brain
